Assay results reported in paper PMC4995097, “Talin-KANK1 interaction controls the recruitment of cortical microtubule stabilizing complexes to focal adhesions” (eLife, 2016).
One block for each molecule: values may come before it.

Columns and labels:
[1] = molecular target: T1, Talin1 R7-R8 (1357–1659) (Mus musculus, UniProt P26039); assay: Fluorescence polarization binding of BODIPY-labeled KANK peptides to talin1 R7-R8; set-up: species or system murine; details: Fluorescence polarization and HSQC (Figure 2C,F)
T1 construct: peptides to Talin1 R7-R8 (1357–1659) was measured using a Fluorescence Polarization assay; His-tag (cleaved yes); made in house; host or cells: E. coli BL21(DE3)
T1 sequence (P26039 1357-1659): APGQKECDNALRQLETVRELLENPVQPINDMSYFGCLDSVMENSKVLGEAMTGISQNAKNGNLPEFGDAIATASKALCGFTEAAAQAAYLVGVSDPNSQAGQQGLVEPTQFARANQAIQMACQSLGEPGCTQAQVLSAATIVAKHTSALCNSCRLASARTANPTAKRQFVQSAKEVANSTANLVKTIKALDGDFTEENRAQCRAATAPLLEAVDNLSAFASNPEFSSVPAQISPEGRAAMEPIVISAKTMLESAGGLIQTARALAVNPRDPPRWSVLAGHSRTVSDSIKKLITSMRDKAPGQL

[2] = tested on: LL5β at the cell edge of HeLa cells; assay: Peripheral clustering of LL5β; type: cell-based, human
Description: (§1) HeLa Kyoto cell line was described previously ([Lansbergen et al., 2006]; [Mimori-Kiyosue et al., 2005]). HEK293T cells were purchased from ATCC; culture and transfection of DNA and siRNA into these cell lines was performed as previously described ([van der Vaart et al., 2013]). HaCaT cells were purchased at Cell Line Service (Eppelheim, Germany) and cultured according to manufacturer’s instructions. The cell lines were routinely checked for mycoplasma contamination using LT07-518 Mycoalert assay (Lonza, Switzerland).The identity of the cell lines was monitored by immunofluorescence-staining-based analysis with multiple markers. Blebbistatin was purchased from Enzo Life Sciences and used at 50 μM. Serum starvation in HeLa cells was done for 48 hr and focal adhesion assembly was stimulated by incubation with fetal calf serum-containing medium with or without blebbistatin for 2 hr. ROCK1 inhibitor Y-27632 was purchased at Sigma-Aldrich and used at 1 or 10 μM. Double stable HeLa cell line expressing GFP-KANK1 and TagRFP-paxillin was made by viral infection. We used a pLVIN-TagRFP-paxillin-based lentivirus and a pQC-GFP-KANK1-based retrovirus packaged in HEK293T cells using respectively Lenti-X HTX packaging and pCL-Ampho vectors. Antibiotic selection was applied to cells 48 hr after infection using 500 μg/ml G418 (Geneticin, Life Technologies) and 1 μg/ml puromycin (InvivoGen).
(§2) Antibodies against HA and GFP tags, and liprin β1 used for Western blot analysis were previously described ([van der Vaart et al., 2013]). Rabbit antibodies against KANK1 (HPA005539) and KANK2 (HPA015643) were purchased at Sigma-Aldrich. Western blot analysis of KANK1 was performed using rabbit polyclonal KANK1 antibody (A301-882A) purchased at Bethyl Laboratories. Talin immunofluorescence staining was performed using mouse monoclonal 8d4 antibody (Sigma-Aldrich). Western blot analysis of talin 1 and 2 expression was performed using respectively the isotype specific mouse monoclonal 97H6 (Sigma-Aldrich) and 68E7 (Abcam) antibodies. Ku80 (7/Ku80) antibody was purchased from BD Biosciences. Immunofluorescence staining of KANK1, LL5β, liprin β1, KIF21A and CLASP2 in HeLa and HaCaT cells was performed using the antibodies and procedures previously described ([Lansbergen et al., 2006]; [van der Vaart et al., 2013]). F-actin was stained using Alexa Fluor 594-conjugated phalloidin (Life Technologies). Phospho-tyrosine mouse antibody (PT-66) was purchased from Sigma-Aldrich and rabbit FAK phospho-tyrosine 397 was purchased from Biosource.
Fixed samples and corresponding immunofluorescence images were acquired using widefield fluorescence illumination on a Nikon Eclipse 80i or Ni upright microscope equipped with a CoolSNAP HQ2 CCD camera (Photometrics) or a DS-Qi2 camera (Nikon) an Intensilight C-HGFI precentered fiber illuminator (Nikon), ET-DAPI, ET-EGFP and ET-mCherry filters (Chroma), Nikon NIS Br software, Plan Apo VC 100x NA 1.4 oil, Plan Apo Lambda 100X oil NA 1.45 and Plan Apo VC 60x NA 1.4 oil (Nikon) objectives. […]

[3] = tested on: focal adhesions in HeLa cells; assay: FA number; type: cell-based, human
Description: as §1
(§3) For presentation, images were adjusted for brightness and processed by Gaussian blur and Unsharp mask filter using ImageJ 1.47v (NIH). Fluorescence profiles are values measured by line scan analysis in ImageJ, normalized by background average fluorescence, expressed as a factor of the baseline value obtained for individual channel and plotted as a function of maximum length factor of the selection line (distance ratio). Protein clustering at the cell edge is the ratio of the total fluorescence in the first 5 μm from the cell edge to the next 5 μm measured by line scan analysis in ImageJ after thresholding for cell outline marking and out-of-cell region value assigned to zero. The results were plotted as percentage of control condition average value. FA counting and area measurement was performed using Analyze Particles under ImageJ on focal adhesion binary mask obtained after Gaussian blur/threshold-based cell outline marking and background subtraction (rolling ball radius, 10 pixels). KANK1/talin colocalization was analyzed using Pearson R value provided by Colocalization Analysis plugin under FiJi-ImageJ and a 3 μm diameter circular ROI centered on talin clusters detected by immunofluorescent staining.

[4] = tested on: KANK1/talin in HeLa cells; assay: KANK1 and talin colocalization (Pearson R); type: cell-based, human
Description: as §1, with “We used a pLVIN-TagRFP-paxillin-based lentivirus and a pQC-GFP-KANK1-based retrovirus packaged in HEK293T cells using respectively Lenti-X HTX packaging and pCL-Ampho vectors. Antibiotic selection was applied to cells 48 hr after infection using 500 μg/ml G418 (Geneticin, Life Technologies) and 1 μg/ml puromycin (InvivoGen).” left out
as §3, with “The results were plotted as percentage of control condition average value. FA counting and area measurement was performed using Analyze Particles under ImageJ on focal adhesion binary mask obtained after Gaussian blur/threshold-based cell outline marking and background subtraction (rolling ball radius, 10 pixels).” left out

[5] = tested on: KANK1 at the cell edge of HeLa cells; assay: Peripheral clustering of KANK1; type: cell-based, human
Description: as §1, §2
Fixed samples and corresponding immunofluorescence images were acquired using widefield fluorescence illumination on a Nikon Eclipse 80i or Ni upright microscope equipped with a CoolSNAP HQ2 CCD camera (Photometrics) or a DS-Qi2 camera (Nikon) an Intensilight C-HGFI precentered fiber illuminator (Nikon), ET-DAPI, ET-EGFP and ET-mCherry filters (Chroma), Nikon NIS Br software, Plan Apo VC 100x NA 1.4 oil, Plan Apo Lambda 100X oil NA 1.45 and Plan Apo VC 60x NA 1.4 oil (Nikon) objectives. TIRFM-based live cell imaging was performed using the setup described before ([van der Vaart et al., 2013]) or a similar Nikon Ti microscope-based Ilas^2 system (Roper Scientific, Evry, FRANCE) equipped with dual laser illuminator for azimuthal spinning TIRF (or Hilo) illumination, 150 mW 488 nm laser and 100 mW 561 nm laser, 49,002 and 49,008 Chroma filter sets, EMCCD Evolve mono FW DELTA 512x512 camera (Roper Scientific) with the intermediate lens 2.5X (Nikon C mount adapter 2.5X), CCD camera CoolSNAP MYO M-USB-14-AC (Roper Scientific) and controlled with MetaMorph 7.8.8 software (Molecular Devices). Simultaneous imaging of […] was performed as described before ([van der Vaart et al., 2013]) or using the Optosplit III image splitter device (Andor) on the Ilas^2 system.
For presentation, images were adjusted for brightness and processed by Gaussian blur and Unsharp mask filter using ImageJ 1.47v (NIH). […]

[6] = tested on: focal adhesions in HeLa cells; assay: FA area; type: cell-based, human; details: Y-27632, HeLa
Description: HeLa Kyoto cell line was described previously ([Lansbergen et al., 2006]; [Mimori-Kiyosue et al., 2005]). HEK293T cells were purchased from ATCC; culture and transfection of DNA and siRNA into these cell lines was performed as previously described ([van der Vaart et al., 2013]). HaCaT cells were purchased at Cell Line Service (Eppelheim, Germany) and cultured according to manufacturer’s instructions. The cell lines were routinely checked for mycoplasma contamination using LT07-518 Mycoalert assay (Lonza, Switzerland).The identity of the cell lines was monitored by immunofluorescence-staining-based analysis with multiple markers. Blebbistatin was purchased from Enzo Life Sciences and used at 50 μM. […]
For presentation, images were adjusted for brightness and processed by Gaussian blur and Unsharp mask filter using ImageJ 1.47v (NIH). Fluorescence profiles are values measured by line scan analysis in ImageJ, normalized by background average fluorescence, expressed as a factor of the baseline value obtained for individual channel and plotted as a function of maximum length factor of the selection line (distance ratio). Protein clustering at the cell edge is the ratio of the total fluorescence in the first 5 μm from the cell edge to the next 5 μm measured by line scan analysis in ImageJ after thresholding for cell outline marking and out-of-cell region value assigned to zero. […]

binding to talin (in words) [1]: abolished binding to talin
Molecule: PYFVETPYGFQAAAAFVKYVDDIQKGNTIKKLNIQKRRKC [KANK1-4A, KANK1 KN peptide with LDLD motif mutated to AAAA]

Molecule: Cc1ccc2c(c1)C(=O)C1(O)CCN(c3ccccc3)C1=N2 (stereo not drawn) [blebbistatin, reference compound]
Peripheral clustering of LL5β, percentage of control, average ([2]; blebbistatin 50 μM, FCS 2 h, mean, n = 30, SEM 4.45772): 29.4558 percentage of control condition average value
clustering of CMSC components (in words) ([2]; blebbistatin, cell periphery): strong reduction in clustering of CMSC components at the cell periphery
FA effect of blebbistatin (in words) ([3]; HeLa and HaCaT context, myosin-II inhibition): FA disassembly

Molecule: C[C@@H](N)[C@H]1CC[C@H](C(=O)Nc2ccncc2)CC1 [Y-27632]
KANK1 and talin colocalization, Pearson R value, av, 1 uM ([4]; Y-27632 1 uM, mean, n = 30, sem 0.0310046, control 0.0606667): 0.496
KANK1 and talin colocalization, Pearson R value, av, 10 uM ([4]; Y-27632 10 uM, mean, n = 30, sem 0.0260316, control 0.0606667): 0.535
overlap of KANK1 with FA adhesion markers (in words) ([4]; Y-27632, HeLa): very significant increase in the overlap of KANK1 with FA adhesion markers
Peripheral clustering of KANK1, edge ratio, AV, 1 uM ([5]; Y-27632 1 uM, 45 min, mean, n = 12, SEM 0.341991): 2.059
Peripheral clustering of KANK1, percentage of control, AV, 1 uM ([5]; Y-27632 1 uM, 45 min, mean, n = 12, SEM 6.6857): 40.2515 percentage of control condition average value
Peripheral clustering of KANK1, edge ratio, AV, 10 uM ([5]; Y-27632 10 uM, 45 min, mean, n = 12, SEM 0.374449): 2.344
Peripheral clustering of KANK1, percentage of control, AV, 10 uM ([5]; Y-27632 10 uM, 45 min, mean, n = 12, SEM 7.32023): 45.8254 percentage of control condition average value
CMSC clustering at the cell edge (in words) ([5]; Y-27632, HeLa): sufficient to diminish CMSC clustering at the cell edge
AV #FA (mean number of focal adhesions per cell) ([3]; HeLa, Y-27632 1 uM, 45 min, mean of 7 cells (SD 17.5499, SEM 6.63325)): 54
number of FAs (in words) ([3]; Y-27632, HeLa): the number of FAs was not affected
size of FAs (in words) [6]: their size was reduced
